Legend:
Escherichia coli [1] = experiment: Antibacterial activity against Escherichia coli at a concentration of 80 ug/mL; type: functional
Escherichia coli [2] = experiment: Antibacterial activity against Escherichia coli at a concentration of 20 ug/mL; type: functional
[3] = Lethal dose after intraperitoneal administration in mice; type: toxicity; conditions: mouse, in vivo, ip
Escherichia coli [4] = experiment: Antibacterial activity against Escherichia coli at a concentration of 10 ug/mL; type: functional
Escherichia coli [5] = experiment: Antibacterial activity against Escherichia coli at a concentration of 40 ug/mL; type: functional
[6] = Toxic effect after oral administration (6400 mg/kg) was determined in mice; No effect; type: toxicity, organism-based; conditions: mouse, in vivo
Bacillus subtilis [7] = experiment: Antibacterial activity against Bacillus subtilis at a concentration of 120 ug/mL; type: functional
Bacillus subtilis [8] = experiment: Antibacterial activity against Bacillus subtilis at a concentration of 40 ug/mL; type: functional
Bacillus subtilis [9] = experiment: Antibacterial activity against Bacillus subtilis at a concentration of 80 ug/mL; type: functional
Bacillus subtilis [10] = experiment: Antibacterial activity against Bacillus subtilis at a concentration of 160 ug/mL; type: functional
Klebsiella pneumoniae [11] = experiment: Antibacterial activity against Klebsiella pneumoniae at a concentration of 80 ug/mL; type: functional
Klebsiella pneumoniae [12] = experiment: Antibacterial activity against Klebsiella pneumoniae at a concentration of 160 ug/mL; type: functional
Klebsiella pneumoniae [13] = experiment: Antibacterial activity against Klebsiella pneumoniae at a concentration of 40 ug/mL; type: functional
Klebsiella pneumoniae [14] = experiment: Antibacterial activity against Klebsiella pneumoniae at a concentration of 120 ug/mL; type: functional

SMILES | Zone of inhibition (Escherichia coli [1]) | Zone of inhibition (Escherichia coli [2]) | Lethal dose [3] | Zone of inhibition (Escherichia coli [4]) | Zone of inhibition (Escherichia coli [5]) | Toxic effect [6] | Zone of inhibition (Bacillus subtilis [7]) | Zone of inhibition (Bacillus subtilis [8]) | Zone of inhibition (Bacillus subtilis [9]) | Zone of inhibition (Bacillus subtilis [10]) | Zone of inhibition (Klebsiella pneumoniae [11]) | Zone of inhibition (Klebsiella pneumoniae [12]) | Zone of inhibition (Klebsiella pneumoniae [13]) | Zone of inhibition (Klebsiella pneumoniae [14])
N=C(N)NS(=O)(=O)c1ccc(NCNC(=O)c2ccc(NC(=O)c3cccnc3)cc2)cc1 | 11.7 mm | 11.4 mm | 1000 mg/kg | 10.9 mm | 11 mm | Not Active |  |  |  |  |  |  |  | 
Cc1nnc(NS(=O)(=O)c2ccc(N)cc2)s1 [SULFAMETHIZOLE] | 25.5 mm | 17.4 mm |  | 16.2 mm | 22.2 mm |  |  |  |  |  |  |  |  | 
Cc1cc(C)nc(NS(=O)(=O)c2ccc(N)cc2)n1 [SULFAMETHAZINE] | 18.5 mm | 16.9 mm |  | 15.1 mm | 18.8 mm |  | 21.7 mm | 15.4 mm | 19.9 mm | 22 mm |  |  |  | 
Nc1ccc(S(=O)(=O)Nc2ncccn2)cc1 [SULFADIAZINE] | 25.5 mm | 17.2 mm |  | 9.7 mm | 22.2 mm |  | 26.3 mm | 20.8 mm | 27.2 mm | 26.9 mm | 29.2 mm | 25.6 mm | 27 mm | 29.5 mm
Cc1cc(NS(=O)(=O)c2ccc(NCNC(=O)c3ccc(NC(=O)c4cccnc4)cc3)cc2)no1 | 13.4 mm | 11.5 mm | 1000 mg/kg | 11.3 mm | 11.8 mm | Not Active | 20.7 mm | 14.1 mm | 18.6 mm | 23.5 mm | 14.7 mm | 13.7 mm | 12.5 mm | 14.4 mm
O=C(NCNc1ccc(S(=O)(=O)Nc2ncccn2)cc1)c1ccc(NC(=O)c2cccnc2)cc1 | 18.7 mm | 10.6 mm | 1000 mg/kg | 10.4 mm | 13.7 mm | Not Active | 22.9 mm | 15.4 mm | 20.4 mm | 25.3 mm | 18.3 mm | 20.9 mm | 18.9 mm | 19.2 mm
Cc1cc(C)nc(NS(=O)(=O)c2ccc(NCNC(=O)c3ccc(NC(=O)c4cccnc4)cc3)cc2)n1 | 14.1 mm | 13.9 mm | 1000 mg/kg | 11.4 mm | 13.7 mm | Not Active | 13.6 mm | 6 mm | 11.2 mm | 17.6 mm |  |  |  | 
NS(=O)(=O)c1ccc(NCNC(=O)c2ccc(NC(=O)c3cccnc3)cc2)cc1 | 13.2 mm | 12.7 mm |  | 13.1 mm | 13.2 mm |  |  |  |  |  | 12 mm | 21.4 mm | 11.1 mm | 13.7 mm
Nc1ccc(S(N)(=O)=O)cc1 [SULFANILAMIDE] | 25.4 mm | 22.3 mm |  | 20.4 mm | 22.8 mm |  |  |  |  |  |  |  |  | 
Cc1cc(NS(=O)(=O)c2ccc(N)cc2)no1 [SULFAMETHOXAZOLE] | 23.6 mm | 22.9 mm |  | 19.6 mm | 23.2 mm |  | 27.4 mm | 22.8 mm | 25.4 mm | 27.9 mm | 22.4 mm | 6 mm | 11.6 mm | 26.4 mm
Cc1nnc(NS(=O)(=O)c2ccc(NCNC(=O)c3ccc(NC(=O)c4cccnc4)cc3)cc2)s1 | 15 mm | 14.9 mm | 1000 mg/kg | 12.4 mm | 14.4 mm | Not Active |  |  |  |  |  |  |  | 
